What is called EC50 is the midpoint of the concentration-response curve.

Structures are written as SMILES.

For the experiment, the target named is T1, human AMPK α2β2γ3 (Homo sapiens, UniProt O43741+P54646+Q9UGI9).
T1 construct: expressed in transfected cells; host or cells: HEK293AD cells, MaxCyte bulk electroporation
Nature of the experiment: Primary cellular assay: γ3 associated phospho-Thr172 AMPK detection (custom pAMPK Surefire AlphaLISA) in α2β2γ3 bulk transiently transfected HEK293 cells. It counts as cell-based. Particulars: activation of human AMPK α2β2γ3 (γ3 pThr172 AMPK signal) in transiently transfected HEK293 cells, 20 minutes compound incubation; for Emax: 20 min, read-out: Assay GMean Asy. Max (%); for EC50: geometric mean EC50, read-out: Assay GMean EC50. As to the method: Primary Cellular Assay—γ3 Associated Phospho-Thr172 AMPK Detection in α2β2γ3 Bulk Transiently Transfected HEK293 Cells
The cellular potencies of the compounds were evaluated using a custom pAMPK Surefire AlphaLISA designed to assess γ3 associated phospho-Thr172 AMPK and modulation by small molecules in AMPK α2β2γ3 transiently transfected HEK293 cells.
A pAMPK Surefire AlphaLISA (PE-ASLU-PAMPK) assay available through Perkin Elmer was modified to selectively assess γ3 pThr172 AMPK content (as opposed to total pThr172 AMPK) by labeling a γ3 antibody with a CaptSure™ tag and substituting it for the total α1c/α2 AMPK labeled antibodies in the kit. In the modified assay, the overall abundance of γ3 AMPK is recognized by the CaptSure γ3 antibody and the phosphorylated AMPK is recognized by biotinylated pThr172 antibody. Subsequent reactivity with streptavitin donor beads and anti CaptSure conjugated acceptor beads brings the molecules into close proximity. Upon excitation at 680 nm, the donor bead converts ambient oxygen to a more excited singlet state which reacts with the acceptor bead and emits light at 520 to 620 nm. The intensity of the signal is proportional to the level of γ3 associated pThr172 AMPK phosphorylation.
In short, AMPK-α2+β2+γ3 MaxCyte bulk-transfected HEK293AD cells were thawed in growth media (DMEM High glucose+10% FBS) in a collagen-coated T150 flask and the cells were allowed to adhere and grow overnight in a 37° C. incubator. The following day, the cells were harvested and resuspended in plating medium (DMEM Low glucose+10% FBS) at a concentration of 100,000 cells per mL and 50 μL of this cell suspension was added to all wells of a 384-well plate using a Multidrop Combi. The cells were allowed to adhere and grow for 2 days in a 37° C. incubator. On assay day, compounds were diluted in 100% dimethyl sulfoxide (DMSO) in a 11 dose, half log dilution scheme and spotted in the cell plates at 1000× the final concentration. Compound incubations were performed in plating media for 20 minutes. Cells were washed with PBS, lysed and the signal was generated by subsequent additions of RB1 reagent from the kit, 1:1000 CaptSure γ3 labeled antibody in 1× immunoassay buffer, Anti-CaptSure acceptor beads and Streptavitin donor beads at final concentration of […]. The γ3 pThr172 AMPK signal was developed using EnVision™ multilabel reader (Perkin Elmer) using Alphascreen settings. The fluorescence emission was used to calculate the % effect relative to the HPE (30 μM) and ZPE (DMSO). EC50 curves were generated with the ActivityBase software using the XLfit model 205 to determine EC50 and Emax values.
For screening purposes, bulk AMPK-α2+β2+γ3 MaxCyte bulk transfection into HEK293AD cells were generated to support SAR screening as follows.
HEK293AD cells were seeded into 10 flasks at 2.7×10^7 cells per flask. The following day 12 mL of Trypl E dissociation reagent were added to each flask to lift the cells and the cells were then spun at 300×g for 5 minutes. Cells were washed once in MaxCyte EP buffer and then resuspended in MaxCyte EP buffer at 1×10^8 cells per mL. For transfection, 500×10^6 cells in 500 μl MaxCyte EP buffer were placed in a CL1.1 Processing Assembly (electroporation cell) with 1 mg/mL ([…]) of each of the plasmids pcDNA3.1(+)-human AMPK alpha 2, pcDNA3.1(+)-human AMPK beta 2 and pcDNA3.1(+)-human AMPK gamma 3 and the electroporation was carried out on the MaxCyte STX using the HEK293 electroporation protocol. Following electroporation, cells were transferred to a T175 flask containing growth medium (DMEM High glucose+10% FBS) and allowed to recover for 25 minutes, then the cells were resuspended to final volume of 900 mL and distributed into 6XT175 flasks and allowed to adhere and grow overnight in a 37° C. incubator. […]
In general terms: Bead proximity is the source of the signal in Alpha formats.

Where [1] appears, read: geometric mean of the asymptotic max.

T1 sequence (P54646 whole entry): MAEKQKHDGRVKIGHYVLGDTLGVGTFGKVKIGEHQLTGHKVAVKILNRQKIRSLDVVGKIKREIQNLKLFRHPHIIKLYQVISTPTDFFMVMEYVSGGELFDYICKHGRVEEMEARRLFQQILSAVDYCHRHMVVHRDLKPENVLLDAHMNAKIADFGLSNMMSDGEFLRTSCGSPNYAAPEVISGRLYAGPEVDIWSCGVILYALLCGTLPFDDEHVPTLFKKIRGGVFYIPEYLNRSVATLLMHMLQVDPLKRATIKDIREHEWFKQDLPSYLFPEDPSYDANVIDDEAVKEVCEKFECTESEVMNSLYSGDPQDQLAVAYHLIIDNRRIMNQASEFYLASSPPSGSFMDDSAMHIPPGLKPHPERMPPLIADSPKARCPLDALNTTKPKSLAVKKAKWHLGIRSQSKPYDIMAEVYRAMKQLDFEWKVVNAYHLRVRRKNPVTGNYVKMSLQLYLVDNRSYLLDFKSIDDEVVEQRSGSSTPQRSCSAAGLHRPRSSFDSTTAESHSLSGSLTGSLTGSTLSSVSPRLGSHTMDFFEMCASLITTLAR
T1 sequence (O43741 whole entry): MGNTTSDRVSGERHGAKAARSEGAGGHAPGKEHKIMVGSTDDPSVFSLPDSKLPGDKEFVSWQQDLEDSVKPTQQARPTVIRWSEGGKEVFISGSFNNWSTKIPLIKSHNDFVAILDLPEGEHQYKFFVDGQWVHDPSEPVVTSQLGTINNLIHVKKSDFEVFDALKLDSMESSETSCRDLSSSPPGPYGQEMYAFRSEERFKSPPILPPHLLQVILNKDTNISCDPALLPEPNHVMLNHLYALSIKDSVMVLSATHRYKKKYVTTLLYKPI
T1 sequence (Q9UGI9 whole entry): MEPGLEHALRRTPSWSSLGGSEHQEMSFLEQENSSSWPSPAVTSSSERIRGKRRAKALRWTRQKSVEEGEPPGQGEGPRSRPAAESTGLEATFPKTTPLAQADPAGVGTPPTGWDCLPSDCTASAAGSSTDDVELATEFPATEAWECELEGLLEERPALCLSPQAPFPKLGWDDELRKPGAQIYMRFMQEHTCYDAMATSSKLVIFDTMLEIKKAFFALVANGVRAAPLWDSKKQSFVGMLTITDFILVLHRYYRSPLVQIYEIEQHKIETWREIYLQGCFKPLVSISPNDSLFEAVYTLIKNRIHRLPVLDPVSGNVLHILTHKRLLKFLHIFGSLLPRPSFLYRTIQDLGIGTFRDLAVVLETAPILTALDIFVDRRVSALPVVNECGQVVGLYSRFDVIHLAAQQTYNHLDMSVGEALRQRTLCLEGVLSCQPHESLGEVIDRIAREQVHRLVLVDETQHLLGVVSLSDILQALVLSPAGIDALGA

On to `CC(C)(O)C(=O)N1CC(Nc2ncc3c(c2F)[C@@](C)(c2cccc(Cl)c2F)CN(c2ccc(CO)cn2)C3=O)C1` [compound 57, (4R)-4-(3-chloro-2-fluorophenyl)-5-fluoro-6-{[1-(2-hydroxy-2-methylpropanoyl)azetidin-3-yl]amino}-2-[5-(hydroxymethyl)pyridin-2-yl]-4-methyl-3,4-dihydro-2,7-naphthyridin-1(2H)-one], for which the EC50 worked out at 75 nM. Moreover, the Emax under setting [1] amounted to 84.9%.
Taken in the same sequence, the figures for `C[C@]1(c2cccc(Cl)c2F)CN(c2n[nH]cc2F)C(=O)c2cnc(NC3CN(C(=O)[C@@H]4C[C@@H]4F)C3)c(F)c21` [Example 112, (4R)-4-(3-chloro-2-fluorophenyl)-5-fluoro-6-({1-[(1S,2S)-2-fluorocyclopropane-1-carbonyl]azetidin-3-yl}amino)-2-(4-fluoro-1H-pyrazol-3-yl)-4-methyl-3,4-dihydro-2,7-naphthyridin-1(2H)-one] were 899 nM and 72.1%.
In the case of `Cn1ccc(N2C[C@](C)(c3cccc(Cl)c3F)c3c(cnc(NC4CN(C(=O)[C@@H]5C[C@@H]5F)C4)c3F)C2=O)n1` [compound 54, (4R)-4-(3-chloro-2-fluorophenyl)-5-fluoro-6-({1-[(1S,2S)-2-fluorocyclopropane-1-carbonyl]azetidin-3-yl}amino)-4-methyl-2-(1-methyl-1H-pyrazol-3-yl)-3,4-dihydro-2,7-naphthyridin-1(2H)-one], the EC50 came out at 58.1 nM. Besides, the Emax under setting [1] was 79.5%.
As for `C[C@]1(c2cccc(Cl)c2F)CN(c2ccc(CCO)cn2)C(=O)c2cnc(NC3CN(C(=O)[C@@H]4C[C@@H]4F)C3)c(F)c21` [compound 48, (4R)-4-(3-chloro-2-fluorophenyl)-5-fluoro-6-({1-[(1S,2S)-2-fluorocyclopropane-1-carbonyl]azetidin-3-yl}amino)-2-[5-(2-hydroxyethyl)pyridin-2-yl]-4-methyl-3,4-dihydro-2,7-naphthyridin-1(2H)-one], the EC50 came to 110 nM. The Emax under setting [1] worked out at 71.4%.
Turning to `Cn1cc(F)c(N2C[C@](C)(c3cccc(Cl)c3F)c3c(cnc(NC4CN(C(=O)C5(O)CC5)C4)c3F)C2=O)n1` [compound 62, (4R)-4-(3-chloro-2-fluorophenyl)-5-fluoro-2-(4-fluoro-1-methyl-1H-pyrazol-3-yl)-6-{[1-(1-hydroxycyclopropane-1-carbonyl)azetidin-3-yl]amino}-4-methyl-3,4-dihydro-2,7-naphthyridin-1(2H)-one], the EC50 stood at 98.1 nM. For the same molecule, the Emax under setting [1] worked out at 138%.
On to `CN1CCC(N2CC(Nc3ncc4c(c3F)[C@@](C)(c3cccc(Cl)c3F)CN(c3nn(C)cc3F)C4=O)C2)C1=O` (single isomer, unassigned) [compound 70], for which the concentration giving a half-maximal response (EC50) was found to be 47.6 nM. Besides, the “Assay GMean Asy. Max (%)” value under setting [1] is on record as 80.4%.
Take `Cn1cncc1C(=O)N1CC(Nc2ncc3c(c2F)[C@@](C)(c2cccc(Cl)c2F)CN(c2ccc(CO)cn2)C3=O)C1` [compound 58, (4R)-4-(3-chloro-2-fluorophenyl)-5-fluoro-2-[5-(hydroxymethyl)pyridin-2-yl]-4-methyl-6-{[1-(1-methyl-1H-imidazole-5-carbonyl)azetidin-3-yl]amino}-3,4-dihydro-2,7-naphthyridin-1(2H)-one]: the EC50 came out at 113 nM. The Emax under setting [1] is 74.6%.
Taken in the same sequence, the figures for `CN(CC1CC1)C(=O)CN1CC(Nc2ncc3c(c2F)[C@@](C)(c2cccc(Cl)c2F)CN(c2nn(C)cc2F)C3=O)C1` [compound 73, 2-(3-{[(5R)-5-(3-chloro-2-fluorophenyl)-4-fluoro-7-(4-fluoro-1-methyl-1H-pyrazol-3-yl)-5-methyl-8-oxo-5,6,7,8-tetrahydro-2,7-naphthyridin-3-yl]amino}azetidin-1-yl)-N-(cyclopropylmethyl)-N-methylacetamide] were 45.3 nM and 46.1%.

The values above are taken from patent US12637461B2, “Compounds for the activation of AMPK” (PFIZER INC., priority 2022, dated 2026).
